Measurements published in patent US4873249A, “Pharmaceutical composition” (EGIS Gyogyszergyar, priority 1986, dated 1989).
Read-outs that look alike come from different tables or passages of the source.

How the values were obtained:
in vivo [1] = conditions: mouse, po
Description: The observation period after treatment lasted for 14 days.
Statistical evaluation was carried out as described by Litchfield-Wilcoxon's method.

[2] = system: brewer's yeast induced fever in rats; assay: Antipyretic activity in rats (brewer's yeast fever); type: in vivo, Wistar rats
Description: The experiments were performed in groups of 10 Wistar rats of both sexes weighing 160-200 g. Fever was induced by 20% brewer's yeast suspended in 0.9% saline solution, applied subcutaneously in a volume of 2 ml/rat distributed at various sites of the back. After 18 hours the test compound or the vehicle was administered in a volume of 10 ml/kg p.o. During this period the rats were fasted but received drinking water ad libitum. The rectal temperature of the animals was measured with a Thermotest thermometer 2 days before injection of the fever inducer, then before the application of the test compound and after treatment in every 60th min. Animals with increase in body temperature less than 0.8° C. were excluded. The results were evaluated according to the statistical method of Duncan.

in vivo [3] = type: in vivo; conditions: mouse, in vivo, po; mice, LD50/writhing ID50; read-out: TI (therapeutic index)
Description: (§1) Between the 5th and 10th minute after the administration of acetic acid total number of the typical writhing reactions was counted, and expressed as percentage of the control. The experiments were performed in groups of at least 12 mice; measurements were done 60 min. after oral application of the test compounds.

[4] = system: acetic-acid writhing reactions in mice; assay: animal or person; type: in vivo; conditions: Mus musculus, po, 1 h, read-out: Writhing test ID50
Description: as §1

[5] = system: carrageenin-induced oedema in rats; assay: Carrageenin-induced oedema test in rats; type: in vivo; conditions: 3 h after carrageenin
Description: Inhibitory activity in carrageenin-induced oedema test was assessed in rats using the technique of Winter at al. (1962). Carageenin (0.1 ml of 1.0% solution) was injected into the plantar surface of the hind paw of rats weighing 130-160 g. Rats were fasted for 12 hours and received drinking water ad libitum. One hour before treatment with the test compound animals were hydrated orally with 30 ml/kg of tap water. The test compounds or the vehicle were administered p.o. in a volume of 10 ml/kg, then two hours later carrageenin was applied. The paw volume was determined in a plethysmometer prior to and 3 hours after administration of the irritant.

[6] = system: PHA stimulated granulocytes; assay: Chemiluminescence of PHA stimulated granulocytes; type: cell-based, human (healthy volunteers); conditions: Homo sapiens, read-out: IC50, chemiluminescence of PHA stimulated granulocytes
Description: (§2) Heparinized blood (10 IU/ml) was taken from healthy volunteers. The blood diluted with equal volume of dextran, the white blood cells were separated by sedimentation. The granulocytes were separated by Uromio gradient. […] The cell suspension was put in dark box for 15 min. Luminol was dissolved in concentrated NH4 OH and diluted in the following solution:
(§3) 50 ml Tris-Parker medium (containing 1.2 g Tris, pH=7.4)
(§4) 4 ml glucose 40% w/v in water
(§5) The Luminol solution (500 μl) was measured in plastic vials and put in dark (37° C.). The reaction was started by addition of the cells and stimulating agent (Phytohaemaglutinin-PHA 10 μg/ml).
(§6) The vials were continuously and gently shaken and the PHA stimulation was measured in every 2.5 min. for 15 min. in a Beckmann LS-100 spectrometer (coincidence switched off). The percentage of the counts measured was calculated in comparison with the solvent treated control cells. At least 5 concentrations of each compound were investigated in at least 3 parallels.

[7] = system: acetic acid writhing reactions in rats; assay: Writhing test in rats (acetic acid); conditions: Rattus norvegicus, po, 1 h, read-out: Writhing test ID50
Description: (§7) Five minutes after treatment with acetic acid, total number of characteristic writhing reactions was counted for 10 minutes and expressed as percentage of the control group.

[8] = system: gastric secretion in rats; assay: Effect on gastric secretion in rats (Shay, pylorus ligation); type: in vivo, Wistar rats; conditions: for Gastric juice / Free acid content / Total acid content: per 100 g body weight; for Free acid content / Total acid content: titration with 0.1 N NaOH
Description: The experiments were carried out following the surgical method of Shay et al. (1946). Fasted Wistar rats weighing 200-250 g were used. During a 48 hours, starving period rats received drinking water ad libitum. The experimental groups consisted of 4 males and 4 females.
On the day of experiment the pylorus of rats was ligated under ether anaesthesia. […] The control groups were treated simultaneously with identical volumes of vehicle in identical route of administration.
Four hours after operation rats were killed with ether, their stomach was removed after cardia ligature, the stomach contents were separated and after centrifugation the volume of the gastric juice was measured. The free acid and total acid content were assayed by titration with 0.1 N NaOH.
The results were individually transformed for 100 g body weight and statistically evaluated by Wilcoxon's method.

[9] = system: adjuvant arthritis in rats; assay: Adjuvant arthritis in rats; type: in vivo, Long Evans rats; conditions: for Paw swelling, % Right: injected right hindpaw, day 10 (primary response); for % inhibition Left: left hindpaw, secondary response; for % inhibition Right: right hindpaw, primary response; for Paw swelling, % Left: uninjected left hindpaw, day 15 (secondary response)
[10] = Chemiluminescence induced by H2O2 in cell free medium
[11] = Writhing test in rats (acetic acid); conditions: rat, in vivo, po
Description: as §7

Wistar rats = conditions: from Barron et al. 1968, 20160 min; cited from earlier work
gastric mucosa of rats = assay: Measurement of ulcerogenic activity; type: in vivo
mononuclear cells = assay: Chemiluminescence of PHA stimulated mononuclear cells; type: cell-based, human (healthy volunteers)
Description: as §2, §3, §4, §5, §6

[12] = 200 mg/kg p.o., 1 hour following treatment
[13] = 200 mg/kg p.o., 3 hours following treatment
[14] = 200 mg/kg p.o., 5 hours following treatment

For `CC(=O)Oc1ccccc1C(=O)O` [Acetylsalicylic acid], the LD50 at 336 h (in vivo [1]) was 1350 mg/kg, the “Decrease in body temperature” value [2, 12] was 0.7 °C and the “Decrease in body temperature” value [2, 13] was 1.0 °C. For the same compound, the “Decrease in body temperature” value [2, 14] was 1.0 °C, the selectivity ratio (in vivo [3]) was 5.2 and the ED50 [4] was 261 mg/kg. For the same compound, the “% inhibition of carrageenin-induced oedema” value ([5]; 100 mg/kg p.o.) was 29.5%.
For `Cc1c(N(C)C)c(=O)n(-c2ccccc2)n1C` [Amidazophen, 1-phenyl-2,3-dimethyl-4-dimethylamino-pyrazolone-5, reference compound], the “Decrease in body temperature” value [2, 12] was 2.7 °C, the “Decrease in body temperature” value [2, 13] was 2.3 °C and the “Decrease in body temperature” value [2, 14] was 1.7 °C.
`COc1ccc(Cc2cnc(N)nc2N)cc1OC` [Compound A, 2,4-diamino-5-(3,4-dimethoxybenzyl)-pyrimidine] showed an IC50 [6] of 0.1 µM, an ED50 [7] of 36 mg/kg and a Gastric juice ([8]; 250 mg/kg orally) of 3.01 mL. It also gave a Free acid content ([8]; 250 mg/kg orally) of 2.17 mL, a Total acid content ([8]; 250 mg/kg orally) of 4.33 mL and a Gastric juice ([8]; 500 mg/kg orally) of 2.93 mL. The Free acid content ([8]; 500 mg/kg orally) was 2.18 mL, the Total acid content ([8]; 500 mg/kg orally) was 4.40 mL and the Gastric juice ([8]; 1000 mg/kg orally) was 2.23 mL. For the same compound, the Free acid content ([8]; 1000 mg/kg orally) was 1.24 mL, the Total acid content ([8]; 1000 mg/kg orally) was 3.18 mL and the inhibition at 250 mg/kg ([8]; Rattus norvegicus, 250 mg/kg, + = increase, - = decrease, read-out: % inhibition compared to the control, Gastric juice) was 17.3%. It also gave a Percent change from control (+ = increase, - = decrease) at 250 mg/kg ([8]; Rattus norvegicus, 250 mg/kg, read-out: % inhibition compared to the control, Free acid content) of -23%, an inhibition at 250 mg/kg ([8]; Rattus norvegicus, 250 mg/kg, read-out: % inhibition compared to the control, Total acid content) of 11.8% and an inhibition at 500 mg/kg ([8]; Rattus norvegicus, 500 mg/kg, + = increase, - = decrease, read-out: % inhibition compared to the control, Gastric juice) of 15.2%. The Percent change from control (+ = increase, - = decrease) at 500 mg/kg ([8]; Rattus norvegicus, 500 mg/kg, read-out: % inhibition compared to the control, Free acid content) was -19.1%, the inhibition at 500 mg/kg ([8]; Rattus norvegicus, 500 mg/kg, read-out: % inhibition compared to the control, Total acid content) was 16.5% and the inhibition at 1000 mg/kg ([8]; Rattus norvegicus, 1000 mg/kg, + = increase, - = decrease, read-out: % inhibition compared to the control, Gastric juice) was -14%. The Percent change from control (+ = increase, - = decrease) at 1000 mg/kg ([8]; Rattus norvegicus, 1000 mg/kg, p < 0.05, read-out: % inhibition compared to the control, Free acid content) was -58.1%, the inhibition at 1000 mg/kg ([8]; Rattus norvegicus, 1000 mg/kg, read-out: % inhibition compared to the control, Total acid content) was -20.1% and the “Effect on gastric secretion (in words)” value ([8]; doses 250-1000 mg/kg) was “did not change the gastric secretion except in very high doses”. The “Antipyretic activity (in words)” value [2] was “significant antipyretic activity”, the “Decrease in body temperature” value ([2]; 100 mg/kg p.o., 1 hour following treatment) was 1.5 °C and the “Decrease in body temperature” value ([2]; 100 mg/kg p.o., 3 hours following treatment) was 2.0 °C. For the same compound, the “Decrease in body temperature” value ([2]; 100 mg/kg p.o., 5 hours following treatment) was 1.7 °C, the “Decrease in body temperature” value [2, 12] was 1.5 °C and the “Decrease in body temperature” value [2, 13] was 2.4 °C. The “Decrease in body temperature” value [2, 14] was 1.6 °C, the “Paw swelling, % Right” value ([9]; 100 mg/kg p.o. once daily) was 56.9% and the “% inhibition Left” value ([9]; 100 mg/kg p.o. once daily) was -47.1%. The “% inhibition Right” value ([9]; 100 mg/kg p.o. once daily) was -51.4%, the “Paw swelling, % Left” value ([9]; 100 mg/kg p.o. once daily) was 38.5% and the ED50 [4] was 141 mg/kg. For the same compound, the “Influence on chemiluminescence induced by H2O2” value [10] was “did not influence” and the “% inhibition of carrageenin-induced oedema” value ([5]; 125 mg/kg p.o.) was 42.0%.
Compound `COc1ccc2c(c1)c(CC(=O)O)c(C)n2C(=O)c1ccc(Cl)cc1` [Indomethacin, 1-(p-chloro-benzoyl)-5-methoxy-2-methyl-1H-indole-3-acetic acid] has an IC50 [6] greater than 100 µM, a selectivity ratio [11] of 5.4 and an ED50 [7] of 4.7 mg/kg. For the same compound, the LD50 (Wistar rats) was 25.5 mg/kg, the Ulcus-index (gastric mucosa of rats; 5 mg/kg orally 6 and 16 h before decapitation) was 0.2 and the Ulcus-index (gastric mucosa of rats; 10 mg/kg orally 6 and 16 h before decapitation) was 1.2. For the same compound, the Ulcus-index (gastric mucosa of rats; 20 mg/kg orally 6 and 16 h before decapitation) was 3.0, the “Effect on ulcus-index (in words)” value (gastric mucosa of rats; oral, over the doses of Table 4) was “increases does dependently the ulcus-index” and the “% inhibition of carrageenin-induced oedema” value ([5]; 1 mg/kg p.o.) was 40.3%.
With `CC(=O)Nc1ccc(O)cc1` [Paracetamol, 4-hydroxy-acetanilide] the ED50 [4] was 180 mg/kg.
For `CCCCC1C(=O)N(c2ccccc2)N(c2ccccc2)C1=O` [Phenylbutazone, 3,5-dioxo-1,2-diphenyl-4-(n-butyl)-pyrazolidine], the IC50 ([6]; PHA 10 μg/ml, Luminol 32 μM) was 100 µM, the ED50 [7] was 19.7 mg/kg and the “Activity on chemiluminescence in mononuclear cells” value (mononuclear cells) was “inactive”. The “Paw swelling, % Right” value ([9]; 30 mg/kg p.o. once daily) was 94.6%, the “% inhibition Left” value ([9]; 30 mg/kg p.o. once daily) was -49.6% and the “% inhibition Right” value ([9]; 30 mg/kg p.o. once daily) was -19.2%. For the same compound, the “Paw swelling, % Left” value ([9]; 30 mg/kg p.o. once daily) was 36.7%, the ED50 [4] was 100 to 200 mg/kg and the “% inhibition of carrageenin-induced oedema” value ([5]; 25 mg/kg p.o.) was 56.6%.
In the case of `CN1C(C(=O)Nc2ccccn2)=C(O)c2ccccc2S1(=O)=O` [Piroxicam, 4-hydroxy-2-methyl-N-2-pyridyl-2H-1,2-benzothiazine-3-carboxamide-1,1-dioxide], the IC50 ([6]; PHA 10 μg/ml, Luminol 32 μM) is reported as 100 µM and the “Activity on chemiluminescence in mononuclear cells” value (mononuclear cells) is reported as “inactive”.
